Reference: ChEMBL document CHEMBL3351491, “Synthesis and preliminary biological evaluation of potent and selective 2-(3-alkoxy-1-azetidinyl) quinolines as novel PDE10A inhibitors with improved solubility” (Bioorg Med Chem, 2014)

Experiments:
Assay type in all cases: ADME, organism-based
[1] = Oral bioavailability in Sprague-Dawley rat at 10 mg/kg; details: in vivo
[2] = Volume of distribution at steady state in Sprague-Dawley rat at 2 mg/kg, iv; design: dose 2 mg/kg, route intravenous; details: in vivo, read-out: Vdss
[3] = Half life in Sprague-Dawley rat at 2 mg/kg, iv; design: dose 2 mg/kg, route intravenous; details: in vivo
[4] = Clearance in Sprague-Dawley rat; details: in vivo
[5] = AUC (0 to infinity) in Sprague-Dawley rat at 10 mg/kg, po; design: time infinity, dose 10 mg/kg, route oral; details: plasma

| bioavailability [1] [%] | Vd [2] [L/kg] | half-life [3] [h] | clearance [4] [mL/min/kg] | AUC(0-inf) [5] [ng·h/mL] | SMILES |
| --- | --- | --- | --- | --- | --- |
| 18 | 4.81 | 6.42 | 61.3 | – | OCC1CCN(c2nccnc2OC2CN(c3ccc4ccccc4n3)C2)CC1 |
| 62 | 1.55 | 3.64 | 16 | 17.4 | CC(=O)N1CCC(c2nccnc2OC2CN(c3ccc4ccccc4n3)C2)CC1 |
| 57 | 1.55 | 2.35 | 9.5 | 27.9 | CC(=O)N1CCC(c2nc3ccccc3nc2OC2CN(c3ccc4ccccc4n3)C2)CC1 |
